Ki data for twelve compounds are collected here from ChEMBL document CHEMBL5038631, “2-(2-Hydroxyethyl)piperazine derivatives as potent human carbonic anhydrase inhibitors: Synthesis, enzyme inhibition, computational studies and antiglaucoma activity” (Eur J Med Chem, 2022).

The assay addresses Carbonic anhydrase 9 (Homo sapiens, UniProt Q16790). Nature of the assay: Inhibition of human CA9 incubated for 15 mins prior to testing by phenol red dye based stopped flow CO2 hydration assay.
`NS(=O)(=O)c1ccc(C(=O)N2CCNC[C@H]2CCO)cc1` displayed a Ki of 60.5 nM.
The value for `NS(=O)(=O)c1ccc(C(=O)N2CCN(Cc3ccccc3)C[C@@H]2CCO)cc1` was 14.7 nM.
With `NS(=O)(=O)c1ccc(C(=O)N2CCN[C@H](CCO)C2)cc1`, the affinity, expressed as Ki, was 53.3 nM.
Compound `CN1CCN(C(=O)c2ccc(S(N)(=O)=O)cc2)[C@H](CCO)C1` had a Ki of 24.9 nM.
As for `NS(=O)(=O)c1ccc(C(=O)N2CCN(Cc3ccccc3)C[C@H]2CCO)cc1`, the inhibition constant Ki turned out to be 35.2 nM.
On to `CN1CCN(C(=O)c2ccc(S(N)(=O)=O)cc2)[C@@H](CCO)C1`, for which affinity was put at a Ki of 31.2 nM.
`NS(=O)(=O)c1ccc(C(=O)N2CCNC[C@@H]2CCO)cc1` displayed a Ki of 51.9 nM.
Turning to `CN1CCN(C(=O)c2ccc(S(N)(=O)=O)cc2)C[C@H]1CCO`, the Ki worked out at 6.8 nM.
As for `NS(=O)(=O)c1ccc(C(=O)N2CCN(Cc3ccccc3)[C@H](CCO)C2)cc1`, the Ki is 59.9 nM.
The figure for `CN1CCN(C(=O)c2ccc(S(N)(=O)=O)cc2)CC1CCO` (racemic) is 6.8 nM; for `NS(=O)(=O)c1ccc(C(=O)N2CCN(Cc3ccccc3)C(CCO)C2)cc1` (racemic) it is 28.8 nM.
As for `NS(=O)(=O)c1ccc(C(=O)N2CCNC(CCO)C2)cc1` (racemic), the Ki turned out to be 34.4 nM.
